From ChEMBL document CHEMBL3046732, “Synthesis and biological evaluation of new [1,3,4]thiadiazepino[7,6-b]quinolin-2-amines as potent anti-microbial agents” (2013)
Blank lines part the entries; values can stand above or below the compound they belong to.

Experiments:
Curvularia australiensis = test: Antimicrobial activity against Curvularia australiensis assessed as growth inhibition by microdilution method; type: functional
Aspergillus niger = test: Antimicrobial activity against Aspergillus niger assessed as growth inhibition by microdilution method; type: functional
Alternaria alternata = test: Antimicrobial activity against Alternaria alternata assessed as growth inhibition by microdilution method; type: functional
Aspergillus flavus = test: Antimicrobial activity against Aspergillus flavus assessed as growth inhibition by microdilution method; type: functional
Trichoderma reesei = test: Antimicrobial activity against Trichoderma reesei assessed as growth inhibition by microdilution method; type: functional
Escherichia coli = test: Antimicrobial activity against Escherichia coli assessed as growth inhibition by microdilution method
Bacillus subtilis = test: Antimicrobial activity against Bacillus subtilis assessed as growth inhibition by microdilution method
Staphylococcus aureus = test: Antimicrobial activity against Staphylococcus aureus assessed as growth inhibition by microdilution method
Klebsiella aerogenes = test: Antimicrobial activity against Enterobacter aerogenes assessed as growth inhibition by microdilution method
Streptococcus pyogenes = test: Antimicrobial activity against Streptococcus pyogenes assessed as growth inhibition by microdilution method
Salmonella typhimurium = test: Antimicrobial activity against Salmonella enterica subsp. enterica serovar Typhimurium assessed as growth inhibition by microdilution method

SMILES: Cc1cccc2cc3c(nc12)SC(NCc1ccccc1)=NN=C3
MIC (Curvularia australiensis): 1000 µg/mL
MIC (Aspergillus niger): 500 µg/mL
MIC (Alternaria alternata): 1000 µg/mL
MIC (Aspergillus flavus): 1000 µg/mL
MIC (Trichoderma reesei): 1000 µg/mL
MIC (Escherichia coli): > 1000 µg/mL
MIC (Bacillus subtilis): > 1000 µg/mL
MIC (Staphylococcus aureus): > 1000 µg/mL
MIC (Klebsiella aerogenes): 1000 µg/mL
MIC (Streptococcus pyogenes): > 1000 µg/mL
MIC (Salmonella typhimurium): > 1000 µg/mL

SMILES: Cc1cccc2cc3c(nc12)SC(NCCN1CCOCC1)=NN=C3
MIC (Curvularia australiensis): 500 µg/mL
MIC (Aspergillus niger): 500 µg/mL
MIC (Alternaria alternata): 500 µg/mL
MIC (Aspergillus flavus): 250 µg/mL
MIC (Trichoderma reesei): 250 µg/mL
MIC (Escherichia coli): 1000 µg/mL
MIC (Bacillus subtilis): 1000 µg/mL
MIC (Staphylococcus aureus): 1000 µg/mL
MIC (Klebsiella aerogenes): 1000 µg/mL
MIC (Streptococcus pyogenes): 1000 µg/mL
MIC (Salmonella typhimurium): 1000 µg/mL

SMILES: Cc1c(Cl)ccc2cc3c(nc12)SC(Nc1cccc(F)c1)=NN=C3
MIC (Curvularia australiensis): 1000 µg/mL
MIC (Aspergillus niger): 1000 µg/mL
MIC (Alternaria alternata): 1000 µg/mL
MIC (Aspergillus flavus): 1000 µg/mL
MIC (Trichoderma reesei): 250 µg/mL
MIC (Escherichia coli): 500 µg/mL
MIC (Bacillus subtilis): 60 µg/mL
MIC (Staphylococcus aureus): 1000 µg/mL
MIC (Klebsiella aerogenes): 500 µg/mL
MIC (Streptococcus pyogenes): 1000 µg/mL
MIC (Salmonella typhimurium): 1000 µg/mL

SMILES: Cc1c(Cl)ccc2cc3c(nc12)SC(Nc1ccc(F)cc1)=NN=C3
MIC (Curvularia australiensis): 500 µg/mL
MIC (Aspergillus niger): 500 µg/mL
MIC (Alternaria alternata): 250 µg/mL
MIC (Aspergillus flavus): 500 µg/mL
MIC (Trichoderma reesei): 250 µg/mL
MIC (Escherichia coli): 500 µg/mL
MIC (Bacillus subtilis): 125 µg/mL
MIC (Staphylococcus aureus): 1000 µg/mL
MIC (Klebsiella aerogenes): 1000 µg/mL
MIC (Streptococcus pyogenes): 60 µg/mL
MIC (Salmonella typhimurium): 1000 µg/mL

SMILES: Cc1ccc(NC2=NN=Cc3cc4ccc(Cl)c(C)c4nc3S2)cc1
MIC (Curvularia australiensis): 1000 µg/mL
MIC (Aspergillus niger): 1000 µg/mL
MIC (Alternaria alternata): 500 µg/mL
MIC (Aspergillus flavus): 1000 µg/mL
MIC (Trichoderma reesei): 250 µg/mL
MIC (Escherichia coli): 250 µg/mL
MIC (Bacillus subtilis): 125 µg/mL
MIC (Staphylococcus aureus): 500 µg/mL
MIC (Klebsiella aerogenes): 500 µg/mL
MIC (Streptococcus pyogenes): 250 µg/mL
MIC (Salmonella typhimurium): 500 µg/mL

SMILES: Cc1cccc(C)c1NC1=NN=Cc2cc3ccc(Cl)c(C)c3nc2S1
MIC (Curvularia australiensis): 500 µg/mL
MIC (Aspergillus niger): 500 µg/mL
MIC (Alternaria alternata): 125 µg/mL
MIC (Aspergillus flavus): 500 µg/mL
MIC (Trichoderma reesei): 250 µg/mL
MIC (Escherichia coli): 125 µg/mL
MIC (Bacillus subtilis): 60 µg/mL
MIC (Staphylococcus aureus): 500 µg/mL
MIC (Klebsiella aerogenes): 500 µg/mL
MIC (Streptococcus pyogenes): 60 µg/mL
MIC (Salmonella typhimurium): 1000 µg/mL

SMILES: Cc1ccc(NC2=NN=Cc3cc4ccc(Cl)c(C)c4nc3S2)c(C)c1
MIC (Curvularia australiensis): 500 µg/mL
MIC (Aspergillus niger): 500 µg/mL
MIC (Alternaria alternata): 250 µg/mL
MIC (Aspergillus flavus): 500 µg/mL
MIC (Trichoderma reesei): 250 µg/mL
MIC (Escherichia coli): 60 µg/mL
MIC (Bacillus subtilis): 30 µg/mL
MIC (Staphylococcus aureus): 500 µg/mL
MIC (Klebsiella aerogenes): 500 µg/mL
MIC (Streptococcus pyogenes): 60 µg/mL
MIC (Salmonella typhimurium): 500 µg/mL

SMILES: CCc1ccc(NC2=NN=Cc3cc4ccc(Cl)c(C)c4nc3S2)cc1
MIC (Curvularia australiensis): > 1000 µg/mL
MIC (Aspergillus niger): 1000 µg/mL
MIC (Alternaria alternata): 1000 µg/mL
MIC (Aspergillus flavus): > 1000 µg/mL
MIC (Trichoderma reesei): 1000 µg/mL
MIC (Escherichia coli): 1000 µg/mL
MIC (Bacillus subtilis): 125 µg/mL
MIC (Staphylococcus aureus): 1000 µg/mL
MIC (Klebsiella aerogenes): 1000 µg/mL
MIC (Streptococcus pyogenes): 500 µg/mL
MIC (Salmonella typhimurium): 1000 µg/mL

SMILES: O=C(N[C@H](CO)[C@H](O)c1ccc([N+](=O)[O-])cc1)C(Cl)Cl [CHLORAMPHENICOL]
MIC (Escherichia coli): 1000 µg/mL
MIC (Bacillus subtilis): 1000 µg/mL
MIC (Staphylococcus aureus): 1000 µg/mL
MIC (Klebsiella aerogenes): 1000 µg/mL
MIC (Streptococcus pyogenes): 1000 µg/mL
MIC (Salmonella typhimurium): 1000 µg/mL

Next, values leading:

MIC (Curvularia australiensis): 1000 µg/mL
MIC (Aspergillus niger): 1000 µg/mL
MIC (Alternaria alternata): 250 µg/mL
MIC (Aspergillus flavus): 500 µg/mL
MIC (Trichoderma reesei): 250 µg/mL
MIC (Escherichia coli): 60 µg/mL
MIC (Bacillus subtilis): 125 µg/mL
MIC (Staphylococcus aureus): > 1000 µg/mL
MIC (Klebsiella aerogenes): 60 µg/mL
MIC (Streptococcus pyogenes): 60 µg/mL
MIC (Salmonella typhimurium): > 1000 µg/mL
SMILES: Cc1c(Cl)ccc2cc3c(nc12)SC(Nc1ccccc1)=NN=C3

MIC (Curvularia australiensis): 1000 µg/mL
MIC (Aspergillus niger): 500 µg/mL
MIC (Alternaria alternata): 500 µg/mL
MIC (Aspergillus flavus): 500 µg/mL
MIC (Trichoderma reesei): 250 µg/mL
MIC (Escherichia coli): 500 µg/mL
MIC (Bacillus subtilis): 60 µg/mL
MIC (Staphylococcus aureus): 500 µg/mL
MIC (Klebsiella aerogenes): 500 µg/mL
MIC (Streptococcus pyogenes): 60 µg/mL
MIC (Salmonella typhimurium): 500 µg/mL
SMILES: Cc1c(Cl)ccc2cc3c(nc12)SC(Nc1ccccc1F)=NN=C3

MIC (Curvularia australiensis): 250 µg/mL
MIC (Aspergillus niger): 500 µg/mL
MIC (Alternaria alternata): 60 µg/mL
MIC (Aspergillus flavus): 500 µg/mL
MIC (Trichoderma reesei): 60 µg/mL
MIC (Escherichia coli): 500 µg/mL
MIC (Bacillus subtilis): 500 µg/mL
MIC (Staphylococcus aureus): 500 µg/mL
MIC (Klebsiella aerogenes): 500 µg/mL
MIC (Streptococcus pyogenes): 500 µg/mL
MIC (Salmonella typhimurium): 500 µg/mL
SMILES: Cc1c(Cl)ccc2cc3c(nc12)SC(Nc1ccccc1Cl)=NN=C3

MIC (Curvularia australiensis): 1000 µg/mL
MIC (Aspergillus niger): 500 µg/mL
MIC (Alternaria alternata): 500 µg/mL
MIC (Aspergillus flavus): 500 µg/mL
MIC (Trichoderma reesei): 250 µg/mL
MIC (Escherichia coli): 60 µg/mL
MIC (Bacillus subtilis): 125 µg/mL
MIC (Staphylococcus aureus): 500 µg/mL
MIC (Klebsiella aerogenes): 1000 µg/mL
MIC (Streptococcus pyogenes): 125 µg/mL
MIC (Salmonella typhimurium): 1000 µg/mL
SMILES: Cc1c(Cl)ccc2cc3c(nc12)SC(Nc1cccc(Cl)c1)=NN=C3

MIC (Curvularia australiensis): 500 µg/mL
MIC (Aspergillus niger): 500 µg/mL
MIC (Alternaria alternata): 250 µg/mL
MIC (Aspergillus flavus): 1000 µg/mL
MIC (Trichoderma reesei): 125 µg/mL
MIC (Escherichia coli): 500 µg/mL
MIC (Bacillus subtilis): 60 µg/mL
MIC (Staphylococcus aureus): 1000 µg/mL
MIC (Klebsiella aerogenes): 500 µg/mL
MIC (Streptococcus pyogenes): 500 µg/mL
MIC (Salmonella typhimurium): 1000 µg/mL
SMILES: Cc1c(Cl)ccc2cc3c(nc12)SC(Nc1ccc(Cl)cc1)=NN=C3

MIC (Curvularia australiensis): 500 µg/mL
MIC (Aspergillus niger): 500 µg/mL
MIC (Alternaria alternata): 250 µg/mL
MIC (Aspergillus flavus): 1000 µg/mL
MIC (Trichoderma reesei): 60 µg/mL
MIC (Escherichia coli): 250 µg/mL
MIC (Bacillus subtilis): 60 µg/mL
MIC (Staphylococcus aureus): 500 µg/mL
MIC (Klebsiella aerogenes): 250 µg/mL
MIC (Streptococcus pyogenes): 250 µg/mL
MIC (Salmonella typhimurium): 500 µg/mL
SMILES: Cc1ccccc1NC1=NN=Cc2cc3ccc(Cl)c(C)c3nc2S1
